According to patent publication US20220127297A1, “Novel Antibacterial 3"-Derivatives Of 4,6-Disubstituted 2,5-Dideoxystreptamine Aminoglycoside Antibiotics” (AGILeBiotics B.V., priority 2018, published 2022):
In brackets after ≈: the same amount, converted by molar mass. Like-named read-outs stand apart in the source and are kept apart here.

What was measured:
Assay in all cases: MIC 90, broth micro-dilution, ATCC strains
[1] = test system: E. coli ATCC BAA-1025 (= BL 21); format: cell-based, Escherichia coli
Source text: (§1) 3.3 Protocol for MIC Determination (ATCC Strains)
(§2) Tested reference compounds. Amikacin sulfate (Cat. No. 01693, Chem-Impex), Gentamicin sulfate (Cat. No. G4918, Sigma Aldrich), Azithromycin (Cat. No. 1046056, USP), Ceftazidime Pentahydrate (Cat. No. 1098130, USP), Ciprofloxacin (Cat. No. 1134313, USP), Meropenem (Cat. No. 1392454, USP), Rifampicin (Cat. No. R0079, TCI), Tobramycin (Cat. No. 1667508, USP), Vancomycin (Cat. No. 1709007 USP).
(§3) Microbial strains. Staphylococcus aureus ATCC 29213, Staphylococcus aureus ATCC BAA-1717, Escherichia coli ATCC BAA-1025, Klebsiella pneumoniae ATCC BAA-1705, Klebsiella pneumoniae ATCC BAA-2524, Pseudomonas aeruginosa ATCC 27853, Pseudomonas aeruginosa ATCC BAA-2108, Acinetobacter baumannii ATCC BAA-1800.
(§4) Culture media and equipment. BBL™ Mueller Hinton Broth (REF 275730, Lot. 7009699, Becton Dickinson), Mueller Hinton Agar 2 (Ref. No. 97580-500G-F, Lot. No. BCBV4646, Sigma), Dulbecco's Modified Eagle's Medium (DMEM) (Cat. No. 41966-029, Gibco), Minimum Essential Medium (MEM) (Cat. No. 42360-024, Gibco), Fetal bovine serum (FBS) (Cat. No. F7524, Sigma), Non-essential amino acids (NEAA) (100×, Cat. No. 11140-035, Gibco), Sodium Pyruvate (100 mM, 100×, Cat. No. 11360-039, Gibco), Staurosporine (Cat. No. B50188, Biotrend), Cellstar 96-well plates U-bottom (Cat. No. 650180, Lot. No. E14123EB, Greiner Bio-one), CellTiter-Glo (Cat. No. G7573, Promega), 96-well plate V-bottom (Cat. No. 651201, Greiner), 96-well clear plate, U-bottom, (Cat. No. 650180, Greiner), 96-well white plate with clear bottom (Cat. No. 655098, Greiner), 96-well deep well plate 1 mL (Cat. No. 278606, Nunc), Sodium Pyruvate (100 mM, 100×, Gibco, Cat #11360-039), Incubator (Binder), Laminar flow (Thermo Scientific), BioPhotometer (Eppendorf); DEN-1B (McFarland Densitometer, Biosan); McFarland standards (polymer microparticle suspension, Biosan).
(§5) Compound preparation. The test compounds and reference antibiotics were prepared according to CLSI guidelines (Clinical and Laboratory Standards Institute (CLSI); Methods for dilution antimicrobial susceptibility tests for bacteria that grow aerobically; approved standard—ninth edition, M07-A9, Vol. 32, No. 2, 2012) as 5 mg/mL stock solutions in DMSO. Out of these DMSO solutions, 43.5 μL was transferred to 1656.5 μL of MH media in a deep well plate. Out of these working solutions 100 μL was transferred to wells in the third column of 96-well plates. Plates were previously filled with 50 μL of MH media in all wells except for the wells in the third column. After compound and antibiotic addition, 50 μL was transferred from the third to the fourth column, then from the fourth to the fifth and so on. In this manner, the compounds and antibiotics were plated in 96-well plate in serial two-fold dilutions giving a final concentration range of 64-0.125 μg/mL.
(§6) Preparation of microorganisms. Designations used for clinical isolates were from the Fidelta strain collection bank. Microorganisms used were all revived from skim milk storage at −70° C. by plating them on MH agar plates. The following day the single colony of each microorganism was again streaked on fresh agar plates. The next day, using the direct colony suspension method, broth solutions that achieve turbidity equivalent to 0.5 McFarland standard for each microorganism were prepared. […] Out of these suspensions, actual inoculums were prepared by diluting them 100× with MH media giving a final microorganism count of 2-8×10^5 CFU/mL. For each strain of microorganisms, 20 mL of these inoculum solutions were prepared. From the second to the twelfth column of 96-well plates, 50 μL of these solutions were transferred per well. To the first column, 50 μL per well of pure growth media was added. In this manner the first column was used as sterility control of media, the second column was used as control of microorganism's growth and the rest of the plate was used for MIC determination. All plates were incubated for 16-24 h at 37° C. […]

S. aureus ATCC 29213 = format: cell-based, Staphylococcus aureus
Source text: as §1, §2, §3, §4, §5, §6

P. aeruginosa ATCC 27853 = format: cell-based, Pseudomonas aeruginosa
Source text: as §1, §2, §3, §4, §5, §6

[2] = Escherichia coli, ATCCBAA1025, read-out: MIC 90
[3] = Staphylococcus aureus, ATCC29213, read-out: MIC 90
[4] = Pseudomonas aeruginosa, ATCC27853, read-out: MIC 90

Compound | MIC90 [1, 2] | MIC90 (S. aureus ATCC 29213; [3]) | MIC90 (P. aeruginosa ATCC 27853; [4]) | MIC90 [1] | MIC90 (S. aureus ATCC 29213) | MIC90 (P. aeruginosa ATCC 27853)
N=C(N)NC1[C@@H](O)C(OC2[C@@H](F)[C@H](O[C@H]3OC(CN)[C@@H](O)[C@H](O)C3O)C(N)C[C@H]2NC(=O)[C@@H](O)CCN)O[C@H](CO)[C@H]1O (stereo partly drawn) [ABX3003, 3′epi-KanaA-AHB-F-Gua] | 4 µM (≈ 2.52 µg/mL) | 2 µM (≈ 1.26 µg/mL) | 8 µM (≈ 5.04 µg/mL) |  |  | 
NCC[C@H](O)C(=O)N[C@@H]1CC(N)[C@@H](O[C@H]2OC(CN)[C@@H](O)CC2N)[C@H](O)C1OC1O[C@H](CO)[C@@H](O)C(N)[C@H]1O (stereo partly drawn) [ABX5004, Tobra-AHB] |  |  |  | 2 µM (≈ 1.14 µg/mL) | 1 µM (≈ 0.569 µg/mL) | 4 µM (≈ 2.27 µg/mL)
NCC[C@H](O)C(=O)N[C@@H]1CC(N)[C@@H](O[C@H]2OC(CN)[C@@H](O)[C@@H](O)C2N)[C@H](F)C1OC1O[C@H](CO)[C@@H](O)C(N)[C@H]1O (stereo partly drawn) [ABX4003, 3′Epi-KanaB-AHB-F] |  |  |  | 4 µM (≈ 2.35 µg/mL) | 4 µM (≈ 2.35 µg/mL) | 8 µM (≈ 4.69 µg/mL)
N=C(N)NC1[C@@H](O)C(OC2[C@@H](O)[C@H](O[C@H]3OC(CN)[C@@H](O)CC3N)C(N)C[C@H]2NC(=O)[C@@H](O)CCN)O[C@H](CO)[C@H]1O (stereo partly drawn) [ABX5005, Tobra-AHB-Gua] |  |  |  | 2 µM (≈ 1.22 µg/mL) | 1 µM (≈ 0.611 µg/mL) | 4 µM (≈ 2.44 µg/mL)
NCC[C@H](O)C(=O)N[C@@H]1C[C@H](N)[C@@H](O[C@H]2O[C@H](CN)[C@@H](O)[C@H](O)[C@H]2O)[C@H](O)[C@H]1O[C@H]1O[C@H](CO)[C@@H](O)[C@H](N)[C@H]1O [Amikacin, amikacin, reference compound] | 2 µM (≈ 1.17 µg/mL) | 4 µM (≈ 2.34 µg/mL) | 1 µM (≈ 0.586 µg/mL) |  |  | 
NCC[C@H](O)C(=O)N[C@@H]1CC(N)[C@@H](O[C@H]2OC(CN)[C@@H](O)CC2N)[C@H](F)C1OC1O[C@H](CO)[C@@H](O)C(N)[C@H]1O (stereo partly drawn) [ABX5024, Tobra-AHB-F] |  |  |  | 1 µM (≈ 0.571 µg/mL) | 1 µM (≈ 0.571 µg/mL) | 2 µM (≈ 1.14 µg/mL)
NCC[C@H](O)C(=O)N[C@@H]1C[C@H](N)[C@@H](O[C@H]2O[C@H](CN)[C@@H](O)[C@@H](O)[C@H]2O)[C@H](O)[C@H]1O[C@H]1O[C@H](CO)[C@@H](O)[C@H](N)[C@H]1O [ABX3002, 3′Epi-KanaA-AHB] |  |  |  | 32 µM (≈ 18.7 µg/mL) | 16 µM (≈ 9.37 µg/mL) | 32 µM (≈ 18.7 µg/mL)
N=C(NCCN)NC1C(O)[C@@H](CO)OC(OC2C(F)[C@H](O[C@H]3OC(CN)[C@@H](O)CC3N)C(N)C[C@H]2NC(=O)[C@@H](O)CCN)[C@@H]1O (stereo partly drawn) [ABX5020, Tobra-AHB-F-Gua-2-amino-ethyl] | 1 µM (≈ 0.656 µg/mL) | 0.25 µM (≈ 0.164 µg/mL) | 0.25 µM (≈ 0.164 µg/mL) |  |  | 
N=C(N)NC1C(O)[C@@H](CO)OC(OC2C(F)[C@H](O[C@H]3OC(CN)[C@@H](O)CC3N)C(N)C[C@H]2NC(=O)[C@@H](O)CCN)[C@@H]1O (stereo partly drawn) [ABX5006, Tobra-AHB-F-Gua] | 0.5 µM (≈ 0.306 µg/mL) | 0.5 µM (≈ 0.306 µg/mL) | 0.25 µM (≈ 0.153 µg/mL) |  |  | 
NCCC(O)C(=O)NC1CC(N)C(OC2OC(CN)C(O)C(O)C2O)C(F)C1OC1OC(CO)C(O)C(N)C1O (stereo not drawn) [ABX3005, 3′Epi-KanaA-AHB-F] |  |  |  | 8 µM (≈ 4.7 µg/mL) | 4 µM (≈ 2.35 µg/mL) | 8 µM (≈ 4.7 µg/mL)
N=C(NCCCN)NC1[C@@H](O)C(OC2[C@@H](F)[C@H](O[C@H]3OC(CN)[C@@H](O)CC3N)C(N)C[C@H]2NC(=O)[C@@H](O)CCN)O[C@H](CO)[C@H]1O (stereo partly drawn) [ABX5030, Tobra-AHB-F-Gua-3-amino-propyl] | 1 µM (≈ 0.67 µg/mL) | 0.5 µM (≈ 0.335 µg/mL) | 0.5 µM (≈ 0.335 µg/mL) |  |  | 
N=C(N)NC1[C@@H](O)C(OC2[C@@H](F)[C@H](O[C@H]3OC(CN)[C@@H](O)[C@H](O)C3N)C(N)C[C@H]2NC(=O)[C@@H](O)CCN)O[C@H](CO)[C@H]1O (stereo partly drawn) [ABX4004, 3′epi-KanaB-AHB-F-Gua] | 2 µM (≈ 1.26 µg/mL) | 2 µM (≈ 1.26 µg/mL) | 4 µM (≈ 2.51 µg/mL) |  |  | 
N=C(N)N[C@@H]1[C@@H](O)[C@@H](O[C@@H]2[C@@H](O)[C@H](O[C@H]3O[C@H](CN)[C@@H](O)[C@@H](O)[C@H]3N)[C@@H](N)C[C@H]2NC(=O)[C@@H](O)CCN)O[C@H](CO)[C@H]1O [ABX4005, 3′Epi-KanaB-AHB-Gua] |  |  |  | 8 µM (≈ 5.01 µg/mL) | 2 µM (≈ 1.25 µg/mL) | 4 µM (≈ 2.51 µg/mL)
N=C(NC[C@@H]1CCCN1)NC1[C@@H](O)C(OC2[C@@H](F)[C@H](O[C@H]3OC(CN)[C@@H](O)CC3N)C(N)C[C@H]2NC(=O)[C@@H](O)CCN)O[C@H](CO)[C@H]1O (stereo partly drawn) [ABX5026, Tobra-AHB-F-Gua (S) pyrrolidine-2-yl-methyl] | 1 µM (≈ 0.696 µg/mL) | 0.5 µM (≈ 0.348 µg/mL) | 1 µM (≈ 0.696 µg/mL) |  |  | 
NCC[C@H](O)C(=O)N[C@@H]1CC(N)[C@@H](O[C@H]2OC(CN)[C@@H](O)[C@@H](O)C2N)[C@H](O)C1OC1O[C@H](CO)[C@@H](O)C(N)[C@H]1O (stereo partly drawn) [ABX4002, 3′Epi-KanaB-AHB] |  |  |  | 8 µM (≈ 4.68 µg/mL) | 2 µM (≈ 1.17 µg/mL) | 4 µM (≈ 2.34 µg/mL)
